# Literature values, collected in patent US7799335B2, “Differential delivery of nitric oxide” (Boston Scientific Scimed, Inc., priority 2001, dated 2010).
# Legend:
# vasodilation = details: compared with SNAP
# platelet aggregation = details: compared with SNAP
# [1] = tested on: human aortic vascular smooth muscle cells; details: exogenously and endogenously produced nitric oxide, 10^−5 to 10^−3 molar; Tanner et al. 2000
# endothelial cells = details: low levels of nitric oxide (SNP 10-50 uM); Rossig et al. 2000
Compound,effectiveness as vasodilator (vasodilation),inhibition of platelet aggregation (platelet aggregation),effect on smooth muscle cell proliferation [1],effect on TNF-alpha induced apoptosis (endothelial cells)
"N[C@@H](CCC(=O)N[C@@H](CSN=O)C(=O)NCC(=O)O)C(=O)O [GSN70, S-nitrosoglutathione]",less effective vasodilator than SNAP,the opposite is true,,
[N]=O [nitric oxide],,,prevented smooth muscle cell proliferation by inducing G1 phase arrest,prevented TNF-alpha induced apoptosis in endothelial cells
